Laboratory results reported in US20050215531A1, “Use of edg receptor binding agents in cancer” (priority 2002, published 2005).

Test system: HUVEC
Assay: In vitro angiogenesis (tube formation) assay on Matrigel
Assay type: cell-based, human
Procedure: Human umbilical vein endothelial cells (HUVEC) are cultured at 37° C. and 5% CO2 in medium M199 supplemented with 20% SCS (HyClone, Logan, Utah), 1 U/ml heparin, 50 μg/ml ECGS, 2 mM glutamine, 100 U/ml penicillin and 0.1 mg/ml streptomycin. Cells are used for experiments up to passage number 5. Short-starved HUVEC are obtained by starving with 1% SCS-containing M199 for 5 h. Recombinant human VEGF165 is obtained from PromoCell (Heidelberg, Germany). Phospho-specific ERK½, p3B kinase polyclonal antibodies, nonphospho ERK½ antibodies and LumiGLO chemiluminescent reagent are from New England BioLabs (Beverly, Mass.), polyclonal IKB antibodies from Santa Cruz Biotechnology (Santa Cruz, Calif.). Peroxidase-conjugated donkey anti-rabbit immunoglobulin G (IgG) and sheep anti-mouse IgG are purchased from Amersham LIFE SCIENCE (Amersham Place, England). lmmobilon-P transfer membranes are products of Millipore (Bedford, Mass.). S is obtained from Sigma Chemical Co.; S1P is from Biomol. Compound A-phosphate stock solution is prepared by the following protocol. Compound A-phosphate is dissolved in methanol tracing with concentrated HCl (0.5 mg Compound A-phosphate in 500 μl of methanol plus 2 μl of HCl). Solvent from the resulting solution is evaporated under vacuum and the residue obtained is redissolved (variant 1) in 0.1% of defatted BSA solution in sterile deionized water (500 μl) or (variant 2) in 0.5% Triton X-100 in deionized water. The resulting stock solutions (2.5 mM) are sonicated and stored at 4° C.
Morphogenesis of endothelial cells into capillary-like structures on Growth Factor Reduced Matrigel Matrix (BD Bioscience) is performed according to the manufacture procedure. Briefly, HUVEC are trypsinized, resuspended in serum-free Ml 99 medium containing soybean trypsin inhibitor (1 mg/ml, Sigma). After centrifugation cells are resuspended in serum-free medium at a density 0.5×10^5 cells/ml, and cell suspension is seeded in 96-well cell culture plates (Costar, Corning Incorporated) precoated with 50 μl of Matrigel in the absence or presence of various stimuli: VEGF at 1.5 nM, S1P at 0.1-2 μM, S at 0.5-2 μM, Compound A at 0.5-2 μM, and Compound A-phosphate at 0.1-2 μM. Eight hours later, cells on Matrigel are fixed with 3% formaldehyde in PBS and kept at 4° C. Results are quantitated from images made with a Nikon Diaphot microscope equipped with a cooled CCD camera (Kappa GmbH, Gleichen, Germany) by direct counting of branching points on two microscopic fields from each well done in duplicates.
The effect of Compound A and Compound A-phosphate on morphogenic differentiation of endothelial cells is determined using an in vitro angiogenesis assay on Matrigel. Endothelial cell morphogenesis is a complex process that requires cell-extracellular matrix interactions, followed by matrix remodelling, stimulated migration, cell-cell interactions, and perivascular proteolysis. […] This may be interpreted as a possible involvement of EDG-1 (S1P1) receptor-mediated signaling events in Compound A-phosphate-stimulated bioresponses (see e.g. FIG. 3). […] Importantly, high concentrations of S and Compound A (2-5 μM) inhibited VEGF-triggered tube formation.

CCCCCCCCc1ccc(CCC(N)(CO)COP(=O)(O)O)cc1 (stereo not shown) [Compound A-phosphate]
tube formation potency at 2 μM versus 0.5 μM (2 μM): less potent than at 0.5 μM
effect on VEGF-mediated remodelling (0.5-1 μM, with VEGF): does not attenuate
concentration of maximal activity in capillary-like network formation (bell-shape dose-dependence, tested 0.1-2 μM, 8 h): around 0.5 μM
number of branching points per microscopic field (induction potency) (compared with S1P and VEGF): comparable for Compound A-phosphate and S1P
